# Test results published in patent US11597951B2 (Lygos, Inc., priority 2018, dated 2023).
# Numbering of substitutions follows the chain as printed. Names may count otherwise.
# B1: EHD3 (E124V): S. cerevisiae EHD3 with point mutation E124V, malonyl-CoA hydrolase (protein, UniProt P28817 1-500, looked up, variant E124V)
# Small ribosomal subunit …: MLRNTLKCAQLSSKYGFKTTTRTFMTTQPQLNVTDAPPVLFTVQDTARVITLNRPKKLNALNAEMSESMFKTLNEYAKSDTTNLVILKSSNRPRSFCAGGDVATVAIFNFNKEFAKSIKFFTDVYSLNFQIATYLKPIVTFMDGITMGGGVGLSIHTPFRIATENTKWAMPEMDIGFFPDVGSTFALPRIVTLANSNSQMALYLCLTGEVVTGADAYMLGLASHYVSSENLDALQKRLGEISPPFNNDPQSAYFFGMVNESIDEFVSPLPKDYVFKYSNEKLNVIEACFNLSKNGTIEDIMNNLRQYEGSAEGKAFAQEIKTKLLTKSPSSLQIALRLVQENSRDHIESAIKRDLYTAANMCMNQDSLVEFSEATKHKLIDKQRVPYPWTKKEQLFVSQLTSITSPKPSLPMSLLRNTSNVTWTQYPYHSKYQLPTEQEIAAYIEKRTNDDTGAKVTEREVLNHFANVIPSRRGKLGIQSLCKIVCERKCEEVNDGLRWK
# B2: EHD3 (E124A): S. cerevisiae EHD3 with point mutation E124A, malonyl-CoA hydrolase (protein, UniProt P28817 1-500, looked up, variant E124A)
# Small ribosomal subunit …: B1 Small ribosomal subunit … with V124A
# B3: EHD3 (E124A/E308V): S. cerevisiae EHD3 with mutations E124A and E308V, malonyl-CoA hydrolase (protein, UniProt P28817 1-500, looked up, variant E124A E308V)
# Small ribosomal subunit …: B1 Small ribosomal subunit … with V124A, E308V
# B4: FabD S92C/L93V/R117H: engineered E. coli FabD malonyl CoA:ACP transacylase with S92C/L93V/R117H (protein, UniProt P0AAI9 2-309, looked up, variant S92C L93V R117H)
# Malonyl CoA-acyl carrier …: TQFAFVFPGQGSQTVGMLADMAASYPIVEETFAEASAALGYDLWALTQQGPAEELNKTWQTQPALLTASVALYRVWQQQGGKAPAMMAGHCVGEYSALVCAGVIDFADAVRLVEMHGKFMQEAVPEGTGAMAAIIGLDDASIAKACEEAAEGQVVSPVNFNSPGQVVIAGHKEAVERAGAACKAAGAKRALPLPVSVPSHCALMKPAADKLAVELAKITFNAPTVPVVNNVDVKCETNGDAIRDALVRQLYNPVQWTKSVEYMAAQGVEHLYEVGPGKVLTGLTKRIVDTLTASALNEPSAMAAALEL
# B5: FabD L931/R117Y: engineered E. coli FabD malonyl CoA:ACP transacylase variant, printed L931/R117Y (protein, UniProt P0AAI9 2-309, looked up, variant L93I R117Y)
# Malonyl CoA-acyl carrier …: B4 Malonyl CoA-acyl carrier … with C91S, V92I, H116Y
# B6: FabD L93S/R117G: engineered E. coli FabD malonyl CoA:ACP transacylase with L93S/R117G (protein, UniProt P0AAI9 2-309, looked up, variant L93S R117G)
# Malonyl CoA-acyl carrier …: B4 Malonyl CoA-acyl carrier … with C91S, V92S, H116G
# B7: FabD L93I/R117Y: engineered E. coli FabD malonyl CoA:ACP transacylase with L93I/R117Y (protein, UniProt P0AAI9 2-309, looked up, variant L93I R117Y)
# Malonyl CoA-acyl carrier …: B4 Malonyl CoA-acyl carrier … with C91S, V92I, H116Y
# Assays:
# [1] = system: MdcY-PMdcL based biosensor; test: MdcY malonate transcription factor biosensor using exogenously added malonate; assay type: cell-based, E. coli
# Text: S14 employs the malonate responsive transcription factor, MdcY (SEQ ID NO:3), and the MdcY-responsive promoter, PMdcL (SEQ ID NO:6) derived from Acinetobacter calcoaceticus. This biosensor of this disclosure was constructed using an E. coli vector backbone with ampicillin resistance marker and ColE1 origin of replication; the tetA tetracycline resistance gene was placed under control of the PMdcL promoter.
# Nucleic acids encoding for MdcY and TetA gene products, PMdcL promoter, and the E. coli vector backbone were synthetically produced; the biosensor vectors were than constructed by PCR amplification of the nucleic acids and subsequent cloning into the E. coli vector backbone. The plasmids were transformed into chemically competent E. coli DH10b and the resulting clones plated on LB agar plates containing 50 μg/ml carbenicillin (Cb^50). Individual colonies were grown overnight in 3 ml LB medium supplemented with antibiotic and the sequences of the purified plasmid were verified.
# E. coli strain K12 was co-transformed with plasmids S14 and individual colonies isolated from LB agar plates (Cb^50). Colonies were grown in 25 ml LB broth (Cb^50) until reaching an optical density at 600 nm (OD600) of approximately 0.50, at which point in time cell stocks were prepared and stored at −80° C.; cell stocks were 0.5 ml cell culture and 0.5 ml of a 50% v/v glycerol solution.
# An aliquot of biosensor cell stock was thawed and used to inoculate 50 ml of LB medium (Cb^50) in a 250 ml, baffled Erlenmeyer flask. Cultures were incubated for 2 hours at 37° C.; subsequently, 0.6 ml biosensor culture was added to 48-well plates prepared with 2.3 ml LB medium)(Cb^50) supplemented with tetracycline and malonate acid at the desired concentration (n=4). Plates were than grown at 30° C. on an orbital titer plate shaker. Following 12 hours incubation, 200 μl samples were taken for OD600 measurement.
# [2] = Malonic acid solubility in water; assay type: physicochemical
# E. coli strain K12 = test: In vivo production of malonate in E. coli using S. cerevisiae EHD3 malonyl-CoA hydrolases; assay type: cell-based; settings: for Malonate Concentration: E. coli K12, M9 minimal medium, 30° C., 48 hours, mean±std dev, n=3; for malonate production relative to wild-type EHD3: E. coli K12, 48 hours
# Procedure: This example describes the host cells and culture conditions resulting in the in vivo production of malonate using a heterologous EHD3 malonyl-CoA hydrolase in an E. coli host cell. E. coli strain K12 was transformed with vectors containing wild-type EHD3, EHD3 (E124A), […], EHD3 (E124S), EHD3 (E124A, E308V) or an empty vector negative control. Transformants were streaked on LB agar plates (Cm^50, 2% glucose). Following overnight growth at 37° C., individual colonies were inoculated into 3 ml LB (Cm^50, 2% glucose) in a 48-well plate. Cultures were incubated on a plate shaker at 37° C. for 6 hours, at which point each culture was inoculated 1% v/v into M9 minimal medium supplemented with Cm^50 and a mixed carbon source (0.5% glycerol, 0.05% glucose, 0.2% lactose) in a 48-well plate. Cultures were incubated on a plate shaker at 30° C., and a 500 μL sample of the fermentation broth was removed for analysis after 48 hours incubation.
# Samples were centrifuged (×6000 g, 1 min) and the supernatant analyzed for malonate quantification. Chemical standards were prepared in […] of water. The separation of malonate was conducted on a Shimadzu Prominence XR UPLC connected to a refractive index detector and UV detector monitoring 210 nm. Product separation was performed on a Bio-Rad Fermentation Monitoring column. The UPLC was programmed to run isocratically using 5 mM H2504 as the eluant with a flow rate of 600 μL per minute. 10 μL were injected per sample, and the sample plate temperature was held at 4° C. Malonate standards began eluting at […]. […] Malonate concentrations (mg/1) were calculated by comparison to a standard curve prepared from authentic malonate.
# S. cerevisiae = test: Production of malonate in yeast expressing engineered FabD malonyl CoA:ACP transacylase; assay type: cell-based
# Text: In this example, FabD from E. coli, a malonyl CoA:ACP transacylase (EC 2.3.1.39) having one or more of the following amino acid changes at the indicated positions: C92, H201, N201, D117, E117, N117, Y117, G117, H117, Q11, D11, Ell, N11, Y11, G11, H11, A93, V93, I93, F93, S93, G93 was employed as a malonyl-CoA hydrolase. The nucleic acid encoding E. coli FabD was PCR amplified from E. coli strain K12 using primer F1 (5′-[…]-3′) (SEQ ID NO: 43) and F2 (5′-[…]-3′) (SEQ ID NO: 44). The amplified gene was then mutated using standard methods and inserted into a shuttle expression plasmid under the control of the TEF1 promoter and upstream of the CYC1 terminator. This vector contains an ampicillin resistance cassette, a PMB1 origin of replication, a CEN/ARS origin of replication, and a URA3 selection marker. The individual mutational combinations assayed are listed with the results below.
# Individual colonies were inoculated into 1 ml of yeast fermentation media comprising 5 g/L ammonium sulfate, 1 g/L monopotassium phosphate, 0.5 g/L magnesium sulfate, 0.1 g/L sodium chloride, 0.1 g/L calcium chloride, 2 mg/L inositol, 0.5 mg/L boric acid, 0.4 mg/L calcium pentothenate, 0.4 mg/L niacin, 0.4 mg/L pyridoxine hydrochloride, 0.4 mg/L thiamine HCl, 0.4 mg/L zinc sulfate, 0.4 mg/L manganese sulfate, 0.2 mg/L p-aminobenzoic acid, 0.2 mg/L riboflavin, 0.2 mg/L sodium molybdate, 0.2 mg/L ferric chloride, 0.1 mg/L potassium iodide, 40 μg/L copper sulfate, 2 μg/L folic acid, 2 μg/L biotin, 10 mg/L adenine, 50 mg/L L-arginine HCl, 80 mg/L L-aspartic acid, 20 mg/L L-histidine HCl, 50 mg/L L-isoleucine, 100 mg/L L-leucine, 50 mg/L L-lysine HCl, 20 mg/L methionine, 50 mg/L L-phenylalanine, 100 mg/L L-threonine, 50 mg/L L-tryptophan, 50 mg/L L-tyrosine, and 140 mg/L L-valine (the base media) containing 2% glucose as a carbon source. The cultures were incubated on a shaker at 30° C. for 24 h, and 20 μl of these cultures were used to inoculate production cultures of 2 ml of the same media. The production cultures were covered with a breathable membrane, incubated with shaking at 30° C. and sampled for HPLC analysis of product accumulation after 96 h and 168 h of growth.
# [3] = plasmid S14, tetracycline, 12 hours, 30° C.
molecule,measurement,setting,value
"O=C(O)CC(=O)O [malonic acid, propanedioic acid]",biosensor response,[1]; cultures harboring S14,dose-dependent response
same,dynamic range (maximum difference in OD600 between fully induced samples and samples absent malonate),[1]; [3],1.2 OD600 units
same,exogenously added malonate concentration over which an increase in OD600 was observed,[1]; [3],0.5 to 1 mM
same,Malonic acid solubility in water,[2]; 5 ° C.,53.92 % (w/w)
same,Malonic acid solubility in water,[2]; 10 ° C.,55.75 % (w/w)
same,Malonic acid solubility in water,[2]; 15 ° C.,57.63 % (w/w)
same,Malonic acid solubility in water,[2]; 20 ° C.,59.68 % (w/w)
same,Malonic acid solubility in water,[2]; 25 ° C.,61.69 % (w/w)
same,Malonic acid solubility in water,[2]; 30 ° C.,63.5 % (w/w)
same,Malonic acid solubility in water,[2]; 35 ° C.,65.28 % (w/w)
same,Malonic acid solubility in water,[2]; 40 ° C.,67.43 % (w/w)
same,Malonic acid solubility in water,[2]; 45 ° C.,68.85 % (w/w)
same,Malonic acid solubility in water,[2]; 50 ° C.,70.33 % (w/w)
same,Malonic acid solubility in water,[2]; 55 ° C.,72.38 % (w/w)
same,Malonic acid solubility in water,[2]; 60 ° C.,74.29 % (w/w)
same,Malonic acid solubility in water,[2]; 65° C.,75.96 % (w/w)
same,solubility limit,[2]; 65° C.,76 % wt/wt
"Wild-type EHD3: wild type S. cerevisiae EHD3 acyl-CoA hydrolase, SEQ ID NO:1",Malonate Concentration,E. coli strain K12,6.0 ± 0.2 mg/L
B1,malonate production relative to wild-type EHD3,E. coli strain K12,decreased production of malonate
same,Malonate Concentration,E. coli strain K12,0.28 ± 0.03 mg/L
B2,malonate production relative to wild-type EHD3,E. coli strain K12,only a minor increase
same,Malonate Concentration,E. coli strain K12,7.6 ± 0.7 mg/L
B3,Malonate Concentration,E. coli strain K12,8.35 ± 2.5 mg/L
B4,Malonate accumulation,S. cerevisiae; 96 h of fermentation,1.01 mM
same,Malonate accumulation,S. cerevisiae; 168 h of fermentation,2.49 mM
B5,Malonate accumulation,S. cerevisiae; 96 h of fermentation,1.47 mM
same,Malonate accumulation,S. cerevisiae; 168 h of fermentation,2.48 mM
B6,Malonate accumulation,S. cerevisiae; 96 h of fermentation,1.11 mM
same,Malonate accumulation,S. cerevisiae; 168 h of fermentation,2.89 mM
B7,Malonate accumulation,S. cerevisiae; 96 h of fermentation,1.64 mM
same,Malonate accumulation,S. cerevisiae; 168 h of fermentation,3.47 mM
